*1 amine or outer side, *2 acyl side, *3 side chain or, on linkers, in order; H or OH if unused. Where a SMILES comes first, the peptide text is derived from it. Bridges are numbered along the chain shown (N, C = ends). [ ]: non-standard residue; d: D form. The star is where a group is joined. ξ: configuration not given here. Ala(piperidin-4-yl) = O=C([C@H](CC1CCN([*:3])CC1)N[*:1])[*:2]; DOTA = O=C(O)CN1CCN(CC(=O)O)CCN(CC(=O)*)CCN(CC(=O)O)CC1; 2Nal = N[C@@H](Cc1ccc2ccccc2c1)C(=O)O; NMetBuAla = CN[C@@H](CC(C)(C)C)C(=O)O; tBuAla = CC(C)(C)C[C@H](N)C(=O)O; Thr(3ξ) = CC(O)[C@H](N)C(=O)O; αMeP = C[C@@]1(C(=O)O)CCCN1; CH2 = C([*:1])[*:2]
B1: SEQ ID NO 83 (peptide)
peptide: Ac-MWTICNNWH[dA]CWP-NH2
modifications: disulfide 5-11
SMILES: CC[C@H](C)[C@H](NC(=O)[C@@H](NC(=O)[C@H](Cc1c[nH]c2ccccc12)NC(=O)[C@H](CCSC)NC(C)=O)[C@@H](C)O)C(=O)N[C@H]1CSSC[C@@H](C(=O)N[C@@H](Cc2c[nH]c3ccccc23)C(=O)N2CCC[C@H]2C(N)=O)NC(=O)[C@@H](C)NC(=O)[C@H](Cc2c[nH]cn2)NC(=O)[C@H](Cc2c[nH]c3ccccc23)NC(=O)[C@H](CC(N)=O)NC(=O)[C@H](CC(N)=O)NC1=O
B2: SEQ ID NO 81 (peptide)
peptide: Ac-[dA]WTICNNWHDCWP-NH2
modifications: disulfide 5-11
SMILES: CC[C@H](C)[C@H](NC(=O)[C@@H](NC(=O)[C@H](Cc1c[nH]c2ccccc12)NC(=O)[C@@H](C)NC(C)=O)[C@@H](C)O)C(=O)N[C@H]1CSSC[C@@H](C(=O)N[C@@H](Cc2c[nH]c3ccccc23)C(=O)N2CCC[C@H]2C(N)=O)NC(=O)[C@H](CC(=O)O)NC(=O)[C@H](Cc2c[nH]cn2)NC(=O)[C@H](Cc2c[nH]c3ccccc23)NC(=O)[C@H](CC(N)=O)NC(=O)[C@H](CC(N)=O)NC1=O

system: nude mice bearing SHP-77 tumors; test: Ex vivo biodistribution of radiolabeled peptides (% IA/g) in nude mice bearing SHP-77 tumors; conditions: [177Lu]Lu labelling, 24 hours post-injection, intravenous
Experimental: Mice were intravenously injected (via the lateral tail vein) with a bolus dose of the radiolabeled peptides for ex vivo biodistribution studies when tumor volumes were in range of 200-400 mm^3 for xenograft mice and when age of the mice was 5-7 weeks for tumor naïve mice studies. To assess the amount of radionuclide injected into individual mice the syringe was assayed in a dose calibrator before and after injection for [^177Lu]Lu-peptide, then the injected dose was determined from the weight difference and concentration of the radionuclide solution.
Mice were euthanized at pre-determined time points and selected tissues were resected and collected into pre-weighed tubes. The tubes were then reweighed post resection, the difference giving the weight of each tissue. Radioactivity in each tissue was measured using a gamma counter. Counts were decay corrected to the time of injection and percentage of injected activity per gram (% IA/g) was calculated for each tissue based on the injected activity into each individual mouse. Injected activity was converted to counts based on the sensitivity of the gamma counter. The counts in tissue were then converted to the percentage of injected activity and this was divided by the mass of tissue to give % IA/g.

Molecule	kidney uptake (% IA/g)	tumor uptake (% IA/g)
CC(=O)N[C@@H](Cc1c[nH]c2ccccc12)C(=O)N[C@H](C(=O)N[C@@H](CC(C)(C)C)C(=O)N[C@H]1CSCSC[C@@H](C(=O)N[C@@H](Cc2c[nH]c3ccccc23)C(=O)N2CCC[C@@]2(C)C(N)=O)NC(=O)[C@H](CC(=O)O)NC(=O)[C@H](CCCCNC(=O)CN2CCN(CC(=O)O)CCN(CC(=O)O)CCN(CC(=O)O)CC2)NC(=O)[C@H](Cc2ccc3ccccc3c2)NC(=O)[C@H](CC(N)=O)NC(=O)[C@H](CC2CCNCC2)NC1=O)[C@@H](C)O [compound 437, Ac-W-T-(t-Bu-Ala)-C(1)-[3-(4-piperidinyl)-Ala]-N-(2Nal)-Lys(DOTA)-D-C(1)-W-(aMe-P)-CONH2] (Ac-WT[tBuAla]C[Ala(piperidin-4-yl)]N[2Nal]K(DOTA)DCW[αMeP]-NH2; linker 4-10 via CH2)	C (“C” represents 0 < % IA/g ≤ 10 in)	B (“B” represents % IA/g > 5 in tumor)
CC(=O)N[C@@H](Cc1c[nH]c2ccccc12)C(=O)N[C@H](C(=O)N(C)[C@@H](CC(C)(C)C)C(=O)N[C@H]1CSCSC[C@@H](C(=O)N[C@@H](Cc2c[nH]c3ccccc23)C(=O)N2CCC[C@@]2(C)C(=O)O)NC(=O)[C@H](CC(=O)O)NC(=O)[C@H](CCCCNC(=O)CN2CCN(CC(=O)O)CCN(CC(=O)O)CCN(CC(=O)O)CC2)NC(=O)[C@H](Cc2ccc3ccccc3c2)NC(=O)[C@H](CC(N)=O)NC(=O)[C@H](CC2CCNCC2)NC1=O)C(C)O (stereo partly drawn) [compound 443, Ac-W-T-(NMe-tBuAla)-C(1)-[3-(4-piperidinyl)-Ala]-N-(2Nal)-Lys(DOTA)-D-C(1)-W-(aMe-P)-CO2H] (Ac-W[Thr(3ξ)][NMetBuAla]C[Ala(piperidin-4-yl)]N[2Nal]K(DOTA)DCW[αMeP]-OH; linker 4-10 via CH2)	C (“C” represents 0 < % IA/g ≤ 10 in)	B (“B” represents % IA/g > 5 in tumor)

molecular target: T1, DLL3 (target ligand immobilized on a SA sensor chip via streptavidin capture) (Homo sapiens (Human), UniProt Q9NYJ7 27-492, limits assumed); test: SPR, Biacore S200, target ligand on SA chip, 25 C, 1:1 fit; conditions: not given
T1 sequence: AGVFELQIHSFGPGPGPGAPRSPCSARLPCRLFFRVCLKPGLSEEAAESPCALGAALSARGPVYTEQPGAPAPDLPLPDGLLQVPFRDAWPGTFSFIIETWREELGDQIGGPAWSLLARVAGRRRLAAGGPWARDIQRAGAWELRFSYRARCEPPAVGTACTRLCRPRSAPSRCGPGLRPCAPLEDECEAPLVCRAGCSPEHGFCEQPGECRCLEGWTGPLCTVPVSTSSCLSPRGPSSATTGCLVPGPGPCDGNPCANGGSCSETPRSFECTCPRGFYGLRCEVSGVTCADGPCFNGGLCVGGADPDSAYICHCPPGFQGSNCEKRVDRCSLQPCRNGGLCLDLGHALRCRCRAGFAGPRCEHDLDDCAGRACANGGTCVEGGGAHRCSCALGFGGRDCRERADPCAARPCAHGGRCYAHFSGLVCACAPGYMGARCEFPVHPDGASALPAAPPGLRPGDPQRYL
Experimental: Target ligand was immobilized on a SA sensor chip via streptavidin capture. A reference surface was set up for nonspecific binding and refractive index changes. For analysis of the kinetics of interactions, varying concentrations of peptides were injected at a flow rate of 50 μL/minute using running buffer containing 20 mM phosphate buffer with 2.7 mM KCl, 137 mM NaCl and 0.05% Surfactant P20. Sensorgram curves were fitted with 1:1 binding model, and affinity and kinetic parameters were obtained using either Biacore S200 evaluation software 1.1.1 or Biacore Insight evaluation 4.0.

Molecule	Kd
Ac-MWTICNNWHDCWP-NH2 (disulfide 5-11) [SEQ ID NO 69]	12 nM
B1	320 nM
B2	6.5 nM

molecular target: T2, DLL3 (Homo sapiens, UniProt Q9NYJ7); test: SPR KD, biotinylated human DLL3 on streptavidin chip (Table 8); design: biotin (biotinylated); conditions: biotinylated human DLL3 on streptavidin sensor chip, 25° C., 1:1 binding model; read-out: SPR KD
T2 sequence (Q9NYJ7 27-618): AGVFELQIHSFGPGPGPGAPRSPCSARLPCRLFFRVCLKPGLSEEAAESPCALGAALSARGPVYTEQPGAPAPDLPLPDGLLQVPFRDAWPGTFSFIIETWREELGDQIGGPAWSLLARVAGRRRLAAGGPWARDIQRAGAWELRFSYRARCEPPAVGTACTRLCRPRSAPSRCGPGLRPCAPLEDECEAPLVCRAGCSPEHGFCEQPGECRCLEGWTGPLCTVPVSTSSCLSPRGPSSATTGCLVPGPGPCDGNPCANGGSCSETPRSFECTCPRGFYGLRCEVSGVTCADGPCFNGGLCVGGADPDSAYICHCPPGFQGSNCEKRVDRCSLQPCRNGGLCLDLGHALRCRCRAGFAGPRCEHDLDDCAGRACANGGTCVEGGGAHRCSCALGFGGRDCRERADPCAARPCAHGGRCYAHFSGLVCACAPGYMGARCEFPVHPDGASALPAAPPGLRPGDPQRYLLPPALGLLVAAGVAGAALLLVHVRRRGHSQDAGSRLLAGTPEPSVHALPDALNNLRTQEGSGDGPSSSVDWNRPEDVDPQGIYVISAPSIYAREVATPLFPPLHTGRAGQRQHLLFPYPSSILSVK
Excerpt: Biotinylated target ligand human DLL3 was immobilized on a streptavidin sensor chip. A reference surface was set up for nonspecific binding and refractive index changes. […] Sensorgram curves were fitted with 1:1 binding model, and affinity and kinetic parameters were obtained using Biacore Insight evaluation 4.0. software.

Molecule	Kd
CC(=O)N[C@@H](Cc1c[nH]c2ccccc12)C(=O)N[C@H](C(=O)N[C@@H](CC(C)(C)C)C(=O)N[C@H]1CSCSC[C@@H](C(=O)N[C@@H](Cc2c[nH]c3ccccc23)C(=O)N2CCC[C@@]2(C)C(N)=O)NC(=O)[C@H](CC(=O)O)NC(=O)[C@H](CCCCNC(=O)CN2CCN(CC(=O)O)CCN(CC(=O)O)CCN(CC(=O)O)CC2)NC(=O)[C@H](Cc2ccc3ccccc3c2)NC(=O)[C@H](CC(N)=O)NC(=O)[C@H](CC2CCNCC2)NC1=O)[C@@H](C)O [compound 437, Ac-W-T-(t-Bu-Ala)-C(1)-[3-(4-piperidinyl)-Ala]-N-(2Nal)-Lys(DOTA)-D-C(1)-W-(aMe-P)-CONH2] (Ac-WT[tBuAla]C[Ala(piperidin-4-yl)]N[2Nal]K(DOTA)DCW[αMeP]-NH2; linker 4-10 via CH2)	< 1 nM
CC(=O)N[C@@H](Cc1c[nH]c2ccccc12)C(=O)N[C@H](C(=O)N(C)[C@@H](CC(C)(C)C)C(=O)N[C@H]1CSCSC[C@@H](C(=O)N[C@@H](Cc2c[nH]c3ccccc23)C(=O)N2CCC[C@@]2(C)C(=O)O)NC(=O)[C@H](CC(=O)O)NC(=O)[C@H](CCCCNC(=O)CN2CCN(CC(=O)O)CCN(CC(=O)O)CCN(CC(=O)O)CC2)NC(=O)[C@H](Cc2ccc3ccccc3c2)NC(=O)[C@H](CC(N)=O)NC(=O)[C@H](CC2CCNCC2)NC1=O)C(C)O (stereo partly drawn) [compound 443, Ac-W-T-(NMe-tBuAla)-C(1)-[3-(4-piperidinyl)-Ala]-N-(2Nal)-Lys(DOTA)-D-C(1)-W-(aMe-P)-CO2H] (Ac-W[Thr(3ξ)][NMetBuAla]C[Ala(piperidin-4-yl)]N[2Nal]K(DOTA)DCW[αMeP]-OH; linker 4-10 via CH2)	< 1 nM
